The values below come from US20220153732A1, “PROTEIN SECRETION INHIBITORS” (KEZAR LIFE SCIENCES, priority 2019, published 2022).

The structures appear in SMILES notation.

A word on the EC50: it is the midpoint of the concentration-response curve.

Assay type in all cases: cell-based
The test system of assay [1] is PD1-ss+10aa/Gaussia Luciferase. The experiment in a line: Dox-Induced PD1-ss-Gluc Assay. To be noted: 24 hr doxycycline induction, 293FRT/TO cells, Gaussia luciferase signal; read-out: 24 hr Dox Inducible PD1ssGluc 293FRT/TO: Mean IC50. The method in brief:
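Stable cell line carrying PD1-ss+10aa/Gaussia luciferase cDNA under T-REx (doxycycline-inducible) control, plated the day before assay. Compound dilutions in DMSO/media containing doxycycline added and incubated at 37° C, 5% CO2. Undefined stereocentres: data refer to stereoisomer mixtures.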

Assay [2] deals with TNFα-FL/Gaussia Luciferase. In words: Dox Induced TNFα-FL-Gluc Assay. To be noted: 24 hr doxycycline induction, 293FRT/TO cells, Gaussia luciferase signal; read-out: 24 hr Dox Inducible TNFaFLGluc 293FRT/TO: Mean IC50. The method in brief:
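A stable T-REx cell line carrying doxycycline-inducible TNFα-FL/Gaussia luciferase was plated the day before assay. Compound dilutions in DMSO/media containing doxycycline were then added and incubated at 37° C, 5% CO2.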

For assay [3], the system named is HER3-ss+4aa/Gaussia Luciferase. The experiment in a line: Dox-Induced Her3-ss-Gluc Assay. To be noted: 24 hr doxycycline induction, 293FRT/TO cells, Gaussia luciferase signal; read-out: 24 hr Dox Inducible Her3(ss + 4)Gluc 293FRT/TO: Mean IC50. A digest of the protocol:
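Stable T-REx cell line carrying a doxycycline-regulated HER3-ss+4aa/Gaussia luciferase insert, plated the day before assay. Compound dilutions in DMSO/media with doxycycline added, then incubated at 37° C., 5% CO2. Stereoisomer mixtures tested where stereochemistry is not drawn.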

The subject of assay [4] is IL-2-FL/Gaussia Luciferase. In words: Dox Induced IL2-FL-Gluc Assay. To be noted: 24 hr doxycycline induction, 293FRT/TO cells, Gaussia luciferase signal; read-out: 24 hr Dox Inducible IL2FLGIuc 293FRT/TO: Mean IC50. The method in brief:
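Stable T-REx cell line expressing doxycycline-inducible IL-2-FL/Gaussia luciferase cDNA, plated the day before assay. Compound dilutions in DMSO/media containing doxycycline added and incubated at 37° C., 5% CO2. Unspecified stereochemistry means data refer to a stereoisomer mixture.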

The subject of assay [5] is human multiple myeloma cell line NCI-H929. In words: H929 Cell Viability Assay. To be noted: 48 hr, NCI-H929 cells, Celltiter-Glo, read-out: 48 hr H929 Viability Celltiter-Glo: Mean EC50. The method, then:
Plates were incubated at 37° C., 5% CO2 for 48 hours. After 48 hours, Celltiter-Glo® (Promega) was added to each well and luciferase signal was quantified using Tecan Infinite M1000 Pro for cell viability determination.
For chemical structures that include one or more stereoisomers, but are illustrated without indicating stereochemistry, the assay data refers to a mixture of stereoisomers.

In assay [6] the test system is human multiple myeloma cell line U266B1. The experiment in a line: U266 Cell Viability Assay. To be noted: U-266, 48 hr, U266B1 cells, Celltiter-Glo, read-out: 48 hr U266 Viability Celltiter-Glo: Mean EC50. A digest of the protocol: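 U266B1 myeloma cells treated with compound dilutions in DMSO/media for 48 h at 37 °C, 5% CO2. Viability read by CellTiter-Glo luminescence. Stereochemically undefined structures were tested as stereoisomer mixtures.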
A general note: Cellular ATP, detected with luciferase, serves as a proxy for viable cell number.

As for `Cc1ccc(C(=O)Nc2nc(C(C)(C)OC(C)C)cs2)n1Cc1ccncc1` [Compound A76, N-(4-(2-isopropoxypropan-2-yl)thiazol-2-yl)-5-methyl-1-(pyridin-4-ylmethyl)-1H-pyrrole-2-carboxamide], the IC50 is 2.73 µM in assay [1], above 25 µM in assay [2], 12.5 µM in assay [3] and 3.99 µM in assay [4]. Further, the concentration giving a half-maximal response (EC50) in assay [5] and in assay [6] was above 25 µM each time.
With `CC(C)(C)c1csc(NC(=O)c2cccn2Cc2ccncc2Cl)n1` [Compound A77, N-(4-(tert-butyl)thiazol-2-yl)-1-((3-chloropyridin-4-yl)methyl)-1H-pyrrole-2-carboxamide], the IC50 is 3.05 µM in assay [1], above 25 µM in assay [2], 4.68 µM in assay [3] and 3.1 µM in assay [4]. Also, the figures for the EC50 in assay [5] and in assay [6] were 25 µM and above 25 µM, respectively.
Regarding `CC(C)OC(C)(C)c1csc(NC(=O)c2cccn2Cc2ccccc2Cl)n1` [Compound A78], the IC50 is 3.16 µM in assay [1], above 25 µM in assay [2], 7.88 µM in assay [3] and 6.38 µM in assay [4]. Besides, the EC50 in assay [5] was 20.9 µM; in assay [6] it was above 25 µM.
For `CC(C)OC(C)(C)c1csc(NC(=O)c2cccn2Cc2ccccc2)n1` [Compound A79, 1-benzyl-N-(4-(2-isopropoxypropan-2-yl)thiazol-2-yl)-1H-pyrrole-2-carboxamide], the IC50 in assay [1] was 3.18 µM; in assay [2], above 25 µM; in assay [3], 5.26 µM; in assay [4], 4.15 µM. In addition, the EC50 is 24.9 µM in assay [5] and above 25 µM in assay [6].
Consider `CC(C)OC(C)(C)c1csc(NC(=O)c2cccn2Cc2ccc(C#N)cc2)n1` [Compound A80, 1-(4-cyanobenzyl)-N-(4-(2-isopropoxypropan-2-yl)thiazol-2-yl)-1H-pyrrole-2-carboxamide], for which the IC50 in assay [1] was 4.22 µM; in assay [2] it was above 25 µM; in assay [3], 7.88 µM; in assay [4], 3.53 µM. For the same compound, the 50% effective concentration (EC50) is 21.9 µM in assay [5] and above 25 µM in assay [6].
`COCc1csc(NC(=O)c2cccn2Cc2ccncc2)n1` [Compound A81]: the IC50 in assay [1] is 4.62 µM; in assay [2], above 25 µM; in assay [3] it was 23 µM; in assay [4], above 25 µM. For the same compound, the concentration giving a half-maximal response (EC50) in assay [5] and in assay [6] was above 25 µM each time.
In the case of `COc1cnc(NC(=O)c2cccn2Cc2ccncc2)s1` [Compound A82], the IC50 is 4.66 µM in assay [1], above 25 µM in assay [2], above 25 µM in assay [3] and above 25 µM in assay [4]. The half-maximal effective concentration (EC50) in assay [5] and in assay [6] was above 25 µM throughout.
As for `Cc1cc(Cn2cccc2C(=O)Nc2nc(C(C)(C)OC(C)C)cs2)ccn1` [Compound A83, N-(4-(2-isopropoxypropan-2-yl)thiazol-2-yl)-1-((2-methylpyridin-4-yl)methyl)-1H-pyrrole-2-carboxamide], the IC50 in assay [1] is 5.37 µM; in assay [2], above 25 µM; in assay [3], above 25 µM; in assay [4], 4.52 µM. Besides, the EC50 in assay [5] and in assay [6] was above 25 µM throughout.
In the case of `CC(C)OC(C)(C)c1csc(NC(=O)c2cccn2Cc2ccc(S(C)(=O)=O)cc2)n1` [Compound A84, N-(4-(2-isopropoxypropan-2-yl)thiazol-2-yl)-1-(4-(methylsulfonyl)benzyl)-1H-pyrrole-2-carboxamide], the IC50 in assay [1] was 6.34 µM; in assay [2], above 25 µM; in assay [3], above 25 µM; in assay [4] it was 5.82 µM. For the same compound, the concentration giving a half-maximal response (EC50) in assay [5] and in assay [6] was above 25 µM each time.
As for `CC(C)OC(C)(C)c1csc(NC(=O)c2cccn2Cc2cc[n+]([O-])cc2)n1` [Compound A85], the IC50 in assay [1] is 7.54 µM; in assay [2], above 25 µM; in assay [3] it was above 25 µM; in assay [4] it was above 25 µM. Also, the 50% effective concentration (EC50) in assay [5] and in assay [6] was above 25 µM throughout.
As for `CC(C)OC(C)(C)c1csc(NC(=O)c2c(Cl)ccn2Cc2ccncc2)n1` [Compound A86, 3-chloro-N-(4-(2-isopropoxypropan-2-yl)thiazol-2-yl)-1-(pyridin-4-ylmethyl)-1H-pyrrole-2-carboxamide], the IC50 in assay [1] is 8 µM; in assay [2], above 25 µM; in assay [3], above 25 µM; in assay [4] it was above 25 µM. The EC50 in assay [5] and in assay [6] was above 25 µM in each case.
Turning to `CC(C)OC(C)(C)c1csc(NC(=O)c2cccn2Cc2cccnc2)n1` [Compound A87, N-(4-(2-isopropoxypropan-2-yl)thiazol-2-yl)-1-(pyridin-3-ylmethyl)-1H-pyrrole-2-carboxamide], the IC50 is 8.13 µM in assay [1], above 25 µM in assay [2], above 25 µM in assay [3] and 8.59 µM in assay [4]. The EC50 in assay [5] and in assay [6] was above 25 µM throughout.
For `Cc1ccn(Cc2ccncc2)c1C(=O)Nc1nc(C(C)(C)OC(C)C)cs1` [Compound A88, N-(4-(2-isopropoxypropan-2-yl)thiazol-2-yl)-3-methyl-1-(pyridin-4-ylmethyl)-1H-pyrrole-2-carboxamide], the IC50 was 9.65 µM in assay [1], above 25 µM in assay [2], above 25 µM in assay [3] and above 25 µM in assay [4]. For the same compound, the concentration giving a half-maximal response (EC50) in assay [5] and in assay [6] was above 25 µM throughout.
Turning to `CC(C)(O)c1cnc(NC(=O)c2cccn2Cc2ccncc2)s1` [Compound A89], the IC50 in assay [1] is 9.85 µM; in assay [2] it was above 25 µM; in assay [3] it was above 25 µM; in assay [4], above 25 µM. Besides, the EC50 in assay [5] and in assay [6] was above 25 µM each time.
In the case of `CC(C)OC(C)(C)c1csc(NC(=O)c2cccn2Cc2ccnc3ccccc23)n1` [Compound A90, N-(4-(2-isopropoxypropan-2-yl)thiazol-2-yl)-1-(quinolin-4-ylmethyl)-1H-pyrrole-2-carboxamide], the IC50 in assay [1] is 10 µM; in assay [2], above 25 µM; in assay [3] it was above 25 µM; in assay [4] it was above 25 µM. Also, the EC50 in assay [5] is 16.9 µM; in assay [6] it was above 25 µM.
For the compound `CC(C)OC(C)(C)c1csc(NC(=O)c2cccn2CCc2ccncc2)n1` [Compound A91, N-(4-(2-isopropoxypropan-2-yl)thiazol-2-yl)-1-(2-(pyridin-4-yl)ethyl)-1H-pyrrole-2-carboxamide], the IC50 was 11.9 µM in assay [1], above 25 µM in assay [2], above 25 µM in assay [3] and above 21.6 µM in assay [4]. The half-maximal effective concentration (EC50) in assay [5] and in assay [6] was above 25 µM throughout.
`CCc1sc(NC(=O)c2cccn2Cc2ccncc2)nc1CN1CCN(S(=O)(=O)CC)CC1` [Compound A92, N-(5-ethyl-4-((4-(ethylsulfonyl)piperazin-1-yl)methyl)thiazol-2-yl)-1-(pyridin-4-ylmethyl)-1H-pyrrole-2-carboxamide]: the IC50 in assay [1] is 13.1 µM; in assay [2], above 25 µM; in assay [3] it was above 25 µM; in assay [4], above 25 µM. Besides, the EC50 in assay [5] and in assay [6] was above 25 µM each time.
